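Tested at 5 concentrations; 48 h exposure; 96-well plates; endpoints linearly interpolated, else capped at highest concentration. At the GI50, growth is halved.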 Calls of active or inactive are those of the source. No stated cut-off is given here; in the data, active = GI50 up to about 1.1 µM and inactive = higher. Where a SMILES comes first, the peptide text is derived from it. [ ]: non-standard residue; d: D form. The star is where a group is joined. ξ: configuration not given here. ξPhe(4-NO2) = NC(Cc1ccc([N+](=O)[O-])cc1)C(=O)O; Boc = CC(C)(C)OC(=O)*; OBn = c1ccc(CO*)cc1
Experiments:
Test in all cases: NCI tumour cell line growth inhibition, 48 h
HT-29 = system: HT-29
T47D = system: T47D
TK-10 = system: TK-10
MCF7 = system: MCF7
UACC-62 = system: UACC-62
M14 = system: M14
SK-MEL-28 = system: SK-MEL-28
SF-268 = system: SF-268
ACHN = system: ACHN
A498 = system: A498
786-0 = system: 786-0
NCI-H23 = system: NCI-H23
SNB-19 = system: SNB-19
SNB-75 = system: SNB-75
MDA-MB-231 = system: MDA-MB-231
SN12C = system: SN12C
K562 = system: K562
NCI-H522 = system: NCI-H522
UO-31 = system: UO-31
RXF 393 = system: RXF 393

Measured: GI50

NC1(C(=O)O)CCCC1C(=O)O (stereo not given)
inactive: HT-29 > 100 µM | T47D > 100 µM | TK-10 > 100 µM | MCF7 > 100 µM | UACC-62 > 100 µM | M14 > 100 µM | SK-MEL-28 > 100 µM | SF-268 > 100 µM | ACHN > 100 µM | A498 > 100 µM | 786-0 > 100 µM | NCI-H23 > 100 µM | SNB-19 > 100 µM | SNB-75 > 100 µM | MDA-MB-231 > 100 µM | SN12C > 100 µM | K562 > 100 µM | NCI-H522 > 100 µM | UO-31 > 100 µM | RXF 393 > 100 µM

CSc1nc(NC2OC(COC(C)=O)C(OC(C)=O)C(OC(C)=O)C2OC(C)=O)c(/N=C\C=N/c2c(NC3OC(COC(C)=O)C(OC(C)=O)C(OC(C)=O)C3OC(C)=O)nc(SC)n(C)c2=O)c(=O)n1C (stereo not given)
inactive: HT-29 > 82.2 µM | T47D 96.8 µM | TK-10 45.9 µM | MCF7 > 100 µM | UACC-62 > 94.8 µM | M14 > 4.65 µM | SK-MEL-28 > 100 µM | SF-268 62.1 µM | ACHN 83.9 µM | A498 38.5 µM | 786-0 34 µM | NCI-H23 > 70 µM | SNB-19 38.6 µM | SNB-75 12.2 µM | MDA-MB-231 49.3 µM | SN12C > 92.9 µM | K562 > 100 µM | NCI-H522 > 100 µM | UO-31 > 100 µM | RXF 393 17.9 µM

CC(C)(C)c1cc(OCc2nn3c(Cc4ccccc4)nnc3s2)c(Cl)cc1OCc1nn2c(Cc3ccccc3)nnc2s1
inactive: HT-29 23.3 µM | T47D 3.43 µM | TK-10 34.4 µM | MCF7 22.5 µM | UACC-62 24.1 µM | M14 29.7 µM | SK-MEL-28 36.2 µM | SF-268 55.5 µM | ACHN 14.4 µM | A498 15 µM | 786-0 30 µM | NCI-H23 39.1 µM | SNB-19 80.9 µM | SNB-75 91 µM | MDA-MB-231 33.3 µM | SN12C 34.8 µM | K562 17.3 µM | NCI-H522 23.5 µM | UO-31 31.1 µM | RXF 393 17.1 µM

CC(C)(C)OC(=O)NC(Cc1ccc([N+](=O)[O-])cc1)C(=O)NCC(=O)OCc1ccccc1 (stereo not given) (Boc-[ξPhe(4-NO2)]-Gly-OBn)
inactive: HT-29 25.5 µM | T47D 44.1 µM | TK-10 > 100 µM | MCF7 28.2 µM | UACC-62 17 µM | M14 19.5 µM | SK-MEL-28 24 µM | SF-268 19.5 µM | ACHN 23 µM | A498 38.6 µM | 786-0 11.4 µM | NCI-H23 20.2 µM | SNB-19 55.3 µM | SNB-75 18.4 µM | MDA-MB-231 31.3 µM | SN12C 20.7 µM | K562 15 µM | NCI-H522 20.2 µM | UO-31 23.9 µM | RXF 393 22.2 µM
